Among the data in ChEMBL document CHEMBL1221340, “Lanostane triterpenes from Ganoderma lucidum suppress the adipogenesis in 3T3-L1 cells through down-regulation of SREBP-1c” (Bioorg Med Chem Lett, 2010) are Activity and inhibition values, retold here.

Activity calls are given as the source filed them. The calls are words filed in the database; no cut-off is given here.

In data set [1] the test system is 3T3-L1. Kind of data set: Cytotoxicity against mouse 3T3L1 cells assessed as cell viability at up to 40 ug/ml. It counts as cell-based.
Data set [2] relates to 3T3-L1. Kind of data set: Inhibition of adipogenesis in mouse 3T3L1 cells assessed as reduction of lipid accumulation at 40 ug/ml after 8 days relative to control. As to conditions: 3T3-L1, 192 h. It counts as functional.
Data set [3] deals with 3T3-L1. The data set is described as follows: Cytotoxicity against mouse 3T3L1 cells assessed as cell viability at up to 80 ug/ml. It counts as cell-based.
Data set [4] deals with 3T3-L1. Kind of data set: Inhibition of adipogenesis in mouse 3T3L1 cells assessed as reduction of triglyceride accumulation at 80 ug/ml after 8 days. The class given is functional.
The test system of data set [5] is 3T3-L1. Kind of data set: Inhibition of adipogenesis in mouse 3T3L1 cells assessed as reduction of GPDH activity at 80 ug/ml after 8 days. The class given is functional.
Data set [6] has as its system 3T3-L1. Kind of data set: Inhibition of adipogenesis in mouse 3T3L1 cells assessed as reduction of SREBP1c mRNA expression at 80 ug/ml after 8 days by RT-PCR analysis relative to control. The class given is functional. As to conditions: 3T3-L1, 192 h.
The test system of data set [7] is 3T3-L1. Kind of data set: Inhibition of adipogenesis in mouse 3T3L1 cells assessed as reduction of SREBP1c protein expression at 80 ug/ml after 8 days by Western blotting analysis. It counts as functional, cell-based. In general terms: A western blot detects proteins with antibodies after separation by electrophoresis.
The test system of data set [8] is 3T3-L1. The data set is described as follows: Inhibition of adipogenesis in mouse 3T3L1 cells assessed as reduction of FAS mRNA expression at 80 ug/ml after 8 days by RT-PCR analysis. It counts as functional, cell-based.
In data set [9] the test system is 3T3-L1. The data set is described as follows: Inhibition of adipogenesis in mouse 3T3L1 cells assessed as reduction of ACC mRNA expression at 80 ug/ml after 8 days by RT-PCR analysis. It counts as functional, cell-based.

For the compound `CCCCOC(=O)C(C)CC(=O)C[C@@H](C)[C@H]1C[C@H](O)[C@@]2(C)C3=C(C(=O)C[C@]12C)[C@@]1(C)CCC(=O)C(C)(C)[C@@H]1C[C@@H]3O` (stereo partly specified) [BUTYL GANODERATE A], the Activity result with 3T3-L1 [1] and in the data set on 3T3-L1 [3] was “Non-toxic” in each case. Also, the inhibition (commonly the percentage by which the read-out fell short of the control) at 40 µg/mL in the data set with 3T3-L1 [2] was found to be 48%. The inhibition result with 3T3-L1 [4], in the data set on 3T3-L1 [5], in the data set on 3T3-L1 [7], in the data set with 3T3-L1 [8] and in the data set on 3T3-L1 [9] was “Active” in each case. Besides, the inhibition at 80 µg/mL in the data set on 3T3-L1 [6] is 26%.
For the compound `C[C@H](CC(=O)C[C@@H](C)[C@H]1CC(=O)[C@@]2(C)C3=C(C(=O)C[C@]12C)[C@@]1(C)CCC(=O)C(C)(C)[C@@H]1CC3=O)C(=O)O` [GANODERIC ACID E], the Activity entry in the data set on 3T3-L1 [1] was “Non-toxic”.
On the same count and under the same terms, next, `COC(=O)C(C)CC(=O)C[C@@H](C)[C@H]1CC(=O)[C@@]2(C)C3=C(C(=O)[C@@H](OC(C)=O)[C@]12C)[C@@]1(C)CC[C@H](O)C(C)(C)[C@@H]1CC3=O` (stereo partly specified) [METHYL GANODERATE H]: “Non-toxic”.
On the same count and under the same terms, next, `COC(=O)CC[C@@H](C)[C@H]1CC(=O)[C@@]2(C)C3=C(C(=O)[C@@H](OC(C)=O)[C@]12C)[C@@]1(C)CC[C@H](O)C(C)(C)[C@@H]1CC3=O` [METHYL LUCIDENATE E2]: “Non-toxic”; `COC(=O)C(C)CC(=O)C[C@@H](C)[C@H]1CC(=O)[C@@]2(C)C3=C(C(=O)C[C@]12C)[C@@]1(C)CCC(=O)C(C)(C)[C@@H]1C[C@@H]3O` (stereo partly specified) [METHYL GANODERATE D]: “Non-toxic”; `COC(=O)CC[C@@H](C)[C@H]1CC(=O)[C@@]2(C)C3=C(C(=O)C[C@]12C)[C@@]1(C)CCC(=O)C(C)(C)[C@@H]1C[C@@H]3O` [METHYL LUCIDENATE A]: “Non-toxic”.
On to `C[C@H](CCC(=O)O)[C@H]1CC(=O)[C@@]2(C)C3=C(C(=O)C[C@]12C)[C@@]1(C)CC[C@H](O)C(C)(C)[C@@H]1C[C@@H]3O` [LUCIDENIC ACID N], for which the Activity entry in the data set with 3T3-L1 [1] is reported as “Non-toxic”. Also, the inhibition entry in the data set with 3T3-L1 [4] and in the data set on 3T3-L1 [5] was “Active” in each case.
On to `CCCCOC(=O)CC[C@@H](C)[C@H]1CC(=O)[C@@]2(C)C3=C(C(=O)C[C@]12C)[C@@]1(C)CC[C@H](O)C(C)(C)[C@@H]1C[C@@H]3O` [BUTYL LUCIDENATE N], for which, in the data set with 3T3-L1 [1], the Activity result is given as “Non-toxic”. Besides, the inhibition at 40 µg/mL in the data set on 3T3-L1 [2] stood at 56%. Moreover, the inhibition entry in the data set with 3T3-L1 [4], with 3T3-L1 [5], in the data set with 3T3-L1 [7], in the data set on 3T3-L1 [8] and with 3T3-L1 [9] was “Active” throughout. In addition, the inhibition at 80 µg/mL with 3T3-L1 [6] worked out at 38%.
As to `CC(CC(=O)C[C@@H](C)[C@H]1CC(=O)[C@@]2(C)C3=C(C(=O)C[C@]12C)[C@@]1(C)CC[C@H](O)C(C)(C)[C@@H]1C[C@@H]3O)C(=O)O` (stereo partly specified) [GANODERIC ACID B], in the data set on 3T3-L1 [1], the Activity result was “Non-toxic”. Further, the inhibition result with 3T3-L1 [4] and in the data set on 3T3-L1 [5] was “Active” each time.
For the compound `CCCCOC(=O)[C@H](C)CC(=O)C[C@@H](C)[C@H]1CC(=O)[C@@]2(C)C3=C(C(=O)C[C@]12C)[C@@]1(C)CC[C@H](O)C(C)(C)[C@@H]1C[C@@H]3O` [BUTYL GANODERATE B], the Activity result with 3T3-L1 [1] is given as “Non-toxic”. In addition, the inhibition at 40 µg/mL in the data set with 3T3-L1 [2] was found to be 41%. Also, the inhibition entry with 3T3-L1 [4] and in the data set on 3T3-L1 [5] was “Active” each time.
In the case of `C[C@H](CC(=O)C[C@@H](C)[C@H]1C[C@H](O)[C@@]2(C)C3=C(C(=O)C[C@]12C)[C@@]1(C)CCC(=O)C(C)(C)[C@@H]1C[C@@H]3O)C(=O)O` [GANODERIC ACID A], the Activity result with 3T3-L1 [1] and in the data set with 3T3-L1 [3] was “Non-toxic” in each case. The inhibition at 80 µg/mL was found to be 36% in the data set with 3T3-L1 [4] (3T3-L1, 192 h) and 48% in the data set on 3T3-L1 [5] (3T3-L1, 192 h).
`COC(=O)[C@H](C)CC(=O)C[C@@H](C)[C@H]1C[C@H](O)[C@@]2(C)C3=C(C(=O)C[C@]12C)[C@@]1(C)CCC(=O)C(C)(C)[C@@H]1C[C@@H]3O`: the Activity entry in the data set on 3T3-L1 [1] and with 3T3-L1 [3] was “Non-toxic” throughout.
As for `COC(=O)CC[C@@H](C)[C@H]1CC(=O)[C@@]2(C)C3=C(C(=O)[C@@H](OC(C)=O)[C@]12C)[C@@]1(C)CC[C@H](O)C(C)(C)[C@@H]1C[C@@H]3O` [METHYL LUCIDENATE P], the Activity entry in the data set with 3T3-L1 [1] is reported as “Non-toxic”.
Same read-out and setting: next, `COC(=O)CC[C@@H](C)[C@H]1CC(=O)[C@@]2(C)C3=C(C(=O)C[C@]12C)[C@@]1(C)CCC(=O)C(C)(C)[C@@H]1CC3=O` [METHYL LUCIDENATE F]: “Non-toxic”; `CC(CC(=O)C[C@@H](C)[C@H]1C[C@H](O)[C@@]2(C)C3=C(C(=O)C[C@]12C)[C@@]1(C)CCC(=O)C(C)(C)[C@@H]1CC3)C(=O)O` (stereo partly specified) [GANOLUCIDIC ACID A]: “Non-toxic”.
Turning to `CCCCOC(=O)CC[C@@H](C)[C@H]1CC(=O)[C@@]2(C)C3=C(C(=O)C[C@]12C)[C@@]1(C)CCC(=O)C(C)(C)[C@@H]1C[C@@H]3O` [BUTYL LUCIDENATE A], in the data set with 3T3-L1 [1], the Activity result is “Non-toxic”. In addition, in the data set on 3T3-L1 [2], the inhibition at 40 µg/mL worked out at 45%.
Take `COC(=O)C(C)CC(=O)C[C@@H](C)[C@H]1CC(=O)[C@@]2(C)C3=C(C(=O)C[C@]12C)[C@@]1(C)CC[C@H](O)C(C)(C)[C@@H]1C[C@@H]3O` (stereo partly specified) [METHYL GANODERATE B]: the Activity result with 3T3-L1 [1] is “Non-toxic”. Besides, the inhibition result with 3T3-L1 [4] and in the data set with 3T3-L1 [5] was “Active” throughout.
